From US9108930B2, “N1- and N2-carbamoyl-1,2,3-triazole serine hydrolase inhibitors and methods” (The Scripps Research Institute, priority 2011, dated 2015)
Several values for one entry are separate records, joined by “and”; a condition that tells them apart may be missing. Equal values may be shown once. Each block holds one compound with its values, some of them ahead of it.

Tests used:
[1] = tested on: serine hydrolases in mouse brain proteome; experiment: Selectivity profile by competitive ABPP (mouse brain proteome), DAGL series; format: biochemical
DAGLB = target: T1, DAGLB (Mus musculus, UniProt Q91WC9); experiment: Gel-based ABPP assay against recombinant DAGLB (HEK293T-DAGLB lysates); format: biochemical; design: Full-length cDNAs encoding serine hydrolases were purchased from Open Biosystems; V5; host or cells: HEK293T; conditions: for activity against DAGLB: recombinant
T1 sequence (Q91WC9 1-669): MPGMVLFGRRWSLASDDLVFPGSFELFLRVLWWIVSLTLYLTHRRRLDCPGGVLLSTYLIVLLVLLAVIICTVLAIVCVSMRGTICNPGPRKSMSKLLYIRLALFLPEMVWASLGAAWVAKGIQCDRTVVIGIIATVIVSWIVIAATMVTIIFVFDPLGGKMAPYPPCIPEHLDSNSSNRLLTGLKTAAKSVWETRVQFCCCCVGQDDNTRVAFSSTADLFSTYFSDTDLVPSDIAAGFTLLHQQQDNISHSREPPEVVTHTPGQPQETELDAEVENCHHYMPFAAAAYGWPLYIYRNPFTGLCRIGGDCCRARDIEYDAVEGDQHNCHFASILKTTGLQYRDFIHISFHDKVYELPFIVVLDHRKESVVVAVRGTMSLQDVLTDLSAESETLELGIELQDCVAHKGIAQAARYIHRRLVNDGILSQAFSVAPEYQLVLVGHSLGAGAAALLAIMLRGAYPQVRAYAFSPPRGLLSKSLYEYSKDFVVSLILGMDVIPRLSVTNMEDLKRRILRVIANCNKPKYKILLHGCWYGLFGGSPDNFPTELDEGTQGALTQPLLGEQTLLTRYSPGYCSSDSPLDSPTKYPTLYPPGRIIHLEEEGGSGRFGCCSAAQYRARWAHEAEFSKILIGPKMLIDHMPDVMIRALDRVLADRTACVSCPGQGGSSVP

[2] = tested on: serine hydrolases (SHs) in mouse T-cell proteomes; experiment: Gel-based competitive ABPP, mouse T-cell proteomes in vitro, SH reactivity profile; format: biochemical; conditions: 100 nM, 30 minutes at 37° C.
ABHD11 [3] = target: T2, ABHD11 (Mus musculus, UniProt Q8K4F5); experiment: Gel-based competitive ABPP, mouse T-cell proteome in vitro; format: biochemical; conditions: for IC50: in vitro, 30 minutes at 37° C.
T2 sequence (Q8K4F5 35-307): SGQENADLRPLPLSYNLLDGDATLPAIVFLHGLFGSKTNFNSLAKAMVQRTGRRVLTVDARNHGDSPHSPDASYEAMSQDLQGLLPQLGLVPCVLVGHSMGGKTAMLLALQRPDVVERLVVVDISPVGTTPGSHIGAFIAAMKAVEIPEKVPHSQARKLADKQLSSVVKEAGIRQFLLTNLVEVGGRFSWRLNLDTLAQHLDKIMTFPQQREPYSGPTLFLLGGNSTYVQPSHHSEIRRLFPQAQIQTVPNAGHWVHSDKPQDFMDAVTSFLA

ABHD11 [4] = target: T2, ABHD11; experiment: In situ inhibition in cultured mouse T-cells, gel-based competitive ABPP; format: cell-based; conditions: 4 h at 37° C.; read-out: potency of ABHD11 inactivation in cultured T-cells
ABHD11 [5] = target: T2, ABHD11; experiment: ABPP-SILAC in living mouse T-cells; conditions: 3 nM inhibitor, 4 h
DAGLA = target: T3, DAGLA (Mus musculus, UniProt Q6WQJ1); experiment: Activity against recombinant DAGLA; format: biochemical
T3 construct: Full-length cDNAs encoding serine hydrolases were purchased from Open Biosystems; V5; host or cells: HEK293T
T3 sequence (Q6WQJ1 whole entry): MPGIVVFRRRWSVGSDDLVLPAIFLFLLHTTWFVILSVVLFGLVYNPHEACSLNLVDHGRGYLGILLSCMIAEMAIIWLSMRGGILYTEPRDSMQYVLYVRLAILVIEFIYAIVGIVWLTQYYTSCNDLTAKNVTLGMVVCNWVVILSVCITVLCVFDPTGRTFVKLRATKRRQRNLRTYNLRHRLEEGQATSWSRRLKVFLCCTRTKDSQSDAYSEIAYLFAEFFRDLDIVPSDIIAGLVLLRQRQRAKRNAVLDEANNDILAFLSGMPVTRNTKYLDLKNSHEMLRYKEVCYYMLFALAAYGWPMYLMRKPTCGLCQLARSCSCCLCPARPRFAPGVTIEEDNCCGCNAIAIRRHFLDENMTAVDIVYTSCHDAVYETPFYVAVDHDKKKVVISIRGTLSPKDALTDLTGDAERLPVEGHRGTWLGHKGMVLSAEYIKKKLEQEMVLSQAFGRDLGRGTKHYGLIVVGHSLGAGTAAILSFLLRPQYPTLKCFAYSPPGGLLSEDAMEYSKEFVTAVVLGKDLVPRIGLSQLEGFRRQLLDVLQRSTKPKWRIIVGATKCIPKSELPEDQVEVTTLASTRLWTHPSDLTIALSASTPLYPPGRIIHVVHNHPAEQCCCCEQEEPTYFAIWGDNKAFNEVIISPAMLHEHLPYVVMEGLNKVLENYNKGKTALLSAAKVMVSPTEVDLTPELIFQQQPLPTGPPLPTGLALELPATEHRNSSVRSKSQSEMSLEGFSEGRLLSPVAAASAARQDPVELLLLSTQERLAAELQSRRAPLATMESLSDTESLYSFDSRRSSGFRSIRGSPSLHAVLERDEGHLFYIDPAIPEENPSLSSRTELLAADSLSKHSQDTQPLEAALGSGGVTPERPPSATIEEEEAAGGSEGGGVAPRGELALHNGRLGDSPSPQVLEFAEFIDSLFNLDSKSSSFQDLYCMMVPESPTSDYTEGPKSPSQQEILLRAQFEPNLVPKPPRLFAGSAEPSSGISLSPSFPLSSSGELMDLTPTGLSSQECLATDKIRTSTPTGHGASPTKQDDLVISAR

[6] = tested on: serine hydrolases in mouse tissues; experiment: In vivo ABPP analysis of tissues from KLH25-treated mice; conditions: 25 mg/kg in PEG300, i.p., about 4 hours
Experimental: To assess the degree to which KLH25 is active in vivo, mice were treated with the compound for about 4 hours (25 mg/kg in PEG300, administered intraperitoneally, i.p.), sacrificed, and tissues were harvested for ABPP analysis.

APEH = target: T4, APEH (Mus musculus, UniProt Q8R146); experiment: Gel-based competitive ABPP, mouse T-cell proteome in vitro; format: biochemical; conditions: IC50 for APEH, in vitro, 30 minutes at 37° C., mouse
T4 sequence (Q8R146 1-732): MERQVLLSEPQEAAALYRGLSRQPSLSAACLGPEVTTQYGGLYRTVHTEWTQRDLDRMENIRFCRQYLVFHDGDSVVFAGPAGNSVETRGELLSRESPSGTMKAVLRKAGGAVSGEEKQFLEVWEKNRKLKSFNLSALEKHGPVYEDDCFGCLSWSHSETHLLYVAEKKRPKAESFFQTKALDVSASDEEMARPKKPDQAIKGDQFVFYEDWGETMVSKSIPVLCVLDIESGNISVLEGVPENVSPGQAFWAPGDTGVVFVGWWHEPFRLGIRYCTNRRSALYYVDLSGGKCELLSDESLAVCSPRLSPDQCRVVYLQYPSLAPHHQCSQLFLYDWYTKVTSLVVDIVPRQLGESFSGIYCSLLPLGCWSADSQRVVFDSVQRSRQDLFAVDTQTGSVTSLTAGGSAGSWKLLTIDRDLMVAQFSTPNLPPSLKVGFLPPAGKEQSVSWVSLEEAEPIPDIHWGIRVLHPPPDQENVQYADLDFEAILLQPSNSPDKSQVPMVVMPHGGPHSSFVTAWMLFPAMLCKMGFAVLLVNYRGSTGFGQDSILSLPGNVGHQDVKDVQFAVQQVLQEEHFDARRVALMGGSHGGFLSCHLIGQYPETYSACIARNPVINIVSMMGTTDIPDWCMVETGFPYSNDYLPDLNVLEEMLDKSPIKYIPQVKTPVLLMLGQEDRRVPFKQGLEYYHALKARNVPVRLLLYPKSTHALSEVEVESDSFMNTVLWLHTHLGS
Experimental: The carbamoyl triazole regioisomers were separated by gel chromatography and used for subsequent experiments. […] The compounds were screened at concentrations of 10 and 100 nM in mouse T-cell proteomes (FIG. 3e and FIG. 12).
Gel-based competitive ABPP experiments were performed as described previously. For competitive ABPP with FP-rhodamine, proteomes (1 mg/mL in PBS) were treated with FP-rhodamine (2 μM final concentration) in a […] total reaction volume. After 30 minutes at 25° C., the reactions were quenched with 2×SDS-PAGE loading buffer.
Proteomes were incubated with inhibitors for 30 minutes at 37° C. (in vitro) or for 4 h at 37° C. (in situ) at the indicated concentrations (n=3) prior to FP-rhodamine labeling. After SDS-PAGE and in-gel visualization, the percentage enzymatic activity remaining was determined by measuring the integrated optical intensity of the bands using IMAGER® software. IC50 values were determined from a dose-response curve generated using PRISM® software (GraphPad).

PAFAH2 = PAFAH2 (Mus musculus, UniProt Q8VDG7); experiment: as above; format: biochemical; conditions: 30 minutes at 37° C.
Sequence of PAFAH2 (Q8VDG7 whole entry): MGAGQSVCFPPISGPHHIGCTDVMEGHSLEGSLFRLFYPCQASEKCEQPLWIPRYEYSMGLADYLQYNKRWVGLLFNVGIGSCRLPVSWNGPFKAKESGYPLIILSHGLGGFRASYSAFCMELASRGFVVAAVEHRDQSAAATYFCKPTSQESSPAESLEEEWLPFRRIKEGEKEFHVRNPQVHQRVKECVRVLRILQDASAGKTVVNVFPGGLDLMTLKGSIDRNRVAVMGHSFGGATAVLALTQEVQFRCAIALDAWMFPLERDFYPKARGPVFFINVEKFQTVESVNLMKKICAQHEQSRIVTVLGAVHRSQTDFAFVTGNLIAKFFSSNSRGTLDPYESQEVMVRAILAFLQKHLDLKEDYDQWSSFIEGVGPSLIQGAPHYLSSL

SMILES: O=C(N1CCCCC1Cc1ccccc1)n1cc(-c2ccc(OC(F)(F)F)cc2)nn1 (stereo not shown) [KLH25]
- activity against DAGLA (DAGLA): exhibited activity against both DAGL enzymes
- off-target activity / selectivity against other serine hydrolases [1]: negligible activity against LYPLA1, LYPLA2, and PAFAH2
- inhibition of ABHD6 and FAAH in vivo [6]: Potent inhibition of ABHD6 and FAAH
- inhibition of endogenous DAGLA or DAGLB in vivo [6]: No inhibition of protein bands corresponding to endogenous DAGLA or DAGLB
- activity against DAGLB (DAGLB): significantly more potent against DAGLB in comparison to AA43-2

SMILES: CC(C)CC(O)(CC(C)C)c1cn(C(=O)N2CCCC2)nn1 [N1 AA74-1]
- IC50 (APEH): ~8 nM

SMILES: O=C(N1CCCC1)n1cc(-c2ccc(Br)cc2)nn1 [N1 AA80-1]
- IC50 (PAFAH2): 11 nM

SMILES: O=C(N1CCCC1)n1ncc(-c2ccc(Br)cc2)n1 [N2 AA80-1]
- IC50 (PAFAH2): 5 nM

SMILES: CCCCCCCCCCC[C@@H](C[C@@H]1OC(=O)[C@H]1CCCCCC)OC(=O)[C@H](CC(C)C)NC=O [THL, tetrahydrolipstatin, reference compound]
- activity against DAGLB (DAGLB): blocked

Now from value to compound, other results behind:

- IC50 (DAGLB): ~200 nM
SMILES: O=C(N1CCCCC1Cc1ccccc1)n1cc(C(O)(c2ccccc2)c2ccccc2)nn1 (stereo not shown) [AA43-2]
- off-target activity / selectivity against other serine hydrolases [1]: off-target activity against several other serine hydrolases, notably ABHD6, KIAA1363, and LYPLA1/2
- activity against DAGLB (DAGLB): completely blocked probe-labeling of DAGLB

- inhibition of ABHD11 (ABHD11 [3]; 10 nM): complete inactivation
- IC50 (ABHD11 [3]): 1 nM
- IC50 (ABHD11 [4]): 0.14 to 0.17 nM
- ABHD11 activity blocked (ABHD11 [5]): > 95% and > 97%
SMILES: COCC1CCCCN1C(=O)n1ncc(C(O)(c2ccccc2)c2ccccc2)n1 (stereo not shown) [AA44-2]
- cross-reactivity with other SHs [2]: no cross-reactivity with APEH, PAFAH2, or other SHs

- potency against DAGLB relative to KT117 (DAGLB): greater than 5 fold
SMILES: O=C(N1CCCCC1Cc1ccccc1)n1cc(-c2ccc(Br)cc2)nn1 (stereo not shown) [KT116]

- IC50 (ABHD11 [3]): ~58 nM
SMILES: COCC1CCCCN1C(=O)n1cc(C(O)(c2ccccc2)c2ccccc2)nn1 (stereo not shown) [N1 AA44-2]
